Assay results as given in US6409810B1, “Water-soluble trisazo compounds, aqueous ink composition and colored article” (Nippon Kayaku Kabushiki Kaisha, priority 1997, dated 2002).

Columns and labels:
Assay type in all cases: physicochemical
[1] = Test for resistance to light of the recorded images (carbon arc fade meter, Blue Scale JIS L-0841); conditions: 20 hours carbon arc fade meter; for light fastness (rank) ink jet paper A: ink jet print on ink jet paper A (Color BJ Paper LC 101, Canon); for light fastness (rank) ink jet paper B: ink jet print on ink jet paper B (coated paper STX73 A4, Sharp); for light fastness (rank) plain paper: ink jet print on plain paper (Canon TLB5A4S)
Method: (§1) A liquid having the following formulation was prepared and passed through a 0.45 μm membrane filter to obtain an aqueous ink composition for ink jet printers.
(§2) An ink jet recording was conducted on three different papers, i.e. plain papers (Canon printer paper A4 (TLB5A4S)), ink jet papers A (Color BJ Paper LC 101; ex. Canon) and ink jet papers B (coated papers for ink jet printer STX73 A4; ex. Sharp) by means of an ink jet printer (trade name NOVA JET III; ex. ENCAD). The thus-recorded images were tested with respect to the resistances to light and water and a color rendering property.
The recorded images were irradiated with light for 20 hours by means of a carbon arc fade meter (ex. SUGA Shikenkisha). Light fastness was judged according to the Blue Scale for light resistance standard as defined in JIS L-0841.

[2] = Color rendering property (hue change under tungsten light versus standard light source, visual); parameters: key: ∘: Change in hue was small.; Δ: Change in hue was somewhat large.; X: Change in hue was large; conditions: hue change under tungsten light compared with standard light source
Method: as §1, §2
Discoloration was judged by the visual examination by comparing the hue change under the tungsten light with that under the standard light source.

[3] = Test for resistance to water of the recorded images (immersion in water, visual examination of dropout); parameters: key to water fastness plain paper: ∘: Less amount of the compound was dropped out.; Δ: About half of the compound was dropped out.; X: Large amount of the compound was dropped out; conditions: immersed in water 2 minutes with mild stirring, dried; for water fastness ink jet paper A: ink jet print on ink jet paper A; for water fastness ink jet paper B: ink jet print on ink jet paper B; for water fastness plain paper: ink jet print on plain paper
Method: as §1, §2
Test specimen was immersed in water contained in a beaker with mild stirring for 2 minutes and dried. Amount of the compound was observed by the visual examination before and after the immersion, and dropout of the compound was judged.

Structure (SMILES)	light fastness (rank) ink jet paper A [1]	light fastness (rank) ink jet paper B [1]	light fastness (rank) plain paper [1]	color rendering property [2]	water fastness ink jet paper A [3]	water fastness ink jet paper B [3]	water fastness plain paper [3]
COc1cc(N=Nc2cc(S(=O)(=O)O)cc3cc(S(=O)(=O)O)cc(O)c23)c(C)cc1N=Nc1c(S(=O)(=O)O)cc2ccc(N=Nc3cc(S(=O)(=O)O)c(N)cc3N)cc2c1O [compound 0005]	4-5 rank	5 rank	5 rank	◯	◯	◯	Δ˜◯
COc1cc(N=Nc2cc(S(=O)(=O)O)cc3cc(S(=O)(=O)O)cc(O)c23)c(N)cc1N=Nc1c(S(=O)(=O)O)cc2ccc(N=Nc3cc(S(=O)(=O)O)c(N)cc3N)cc2c1O [compound 0048]	4 rank	5 rank	4-5 rank	◯	◯	◯	◯
COCCOc1cc(N=Nc2cc(S(=O)(=O)O)cc3cc(S(=O)(=O)O)cc(O)c23)c(NC(C)=O)cc1N=Nc1c(S(=O)(=O)O)cc2ccc(N=Nc3ccc(N)cc3O)cc2c1O [compound 0020]	4 rank	5 rank	4-5 rank	◯	◯	◯	Δ˜◯
COc1cc(N=Nc2cc(S(=O)(=O)O)cc3cc(S(=O)(=O)O)cc(O)c23)c(NC(C)=O)cc1N=Nc1c(S(=O)(=O)O)cc2ccc(N=Nc3ccc(O)cc3O)cc2c1O [compound 0012]	3-4 rank	4 rank	4-5 rank	◯	◯	◯	Δ
COCCOc1cc(N=Nc2cc(S(=O)(=O)O)cc3cc(S(=O)(=O)O)cc(O)c23)c(N)cc1N=Nc1c(S(=O)(=O)O)cc2ccc(N=Nc3cc(S(=O)(=O)O)c(N)cc3N)cc2c1O [compound 0051]	4 rank	5 rank	4-5 rank	◯	◯	◯	◯
Nc1cc(N)c(S(=O)(=O)O)cc1N=Nc1ccc2cc(S(=O)(=O)O)c(N=Nc3ccc(N=Nc4cc(S(=O)(=O)O)cc5cc(S(=O)(=O)O)cc(O)c45)c4ccc(S(=O)(=O)O)cc34)c(O)c2c1 [compound 0027]	4 rank	5 rank	5 rank	◯	◯	◯	x˜Δ
COc1cc(N=Nc2cc(S(=O)(=O)O)cc3cc(S(=O)(=O)O)cc(O)c23)c(N)cc1N=Nc1c(S(=O)(=O)O)cc2cc(S(=O)(=O)O)c(N=Nc3ccc(N)cc3O)cc2c1O [compound 0264]	4 rank	5 rank	4-5 rank	◯	◯	◯	◯
COc1cc(N=Nc2cc(S(=O)(=O)O)cc3cc(S(=O)(=O)O)cc(O)c23)c(NC(C)=O)cc1N=Nc1c(S(=O)(=O)O)cc2ccc(N=Nc3cc(S(=O)(=O)O)c(N)cc3N)cc2c1O [compound 0014]	5 rank	5 rank	5 rank	◯	◯	◯	Δ
COc1cc(N=Nc2cc(S(=O)(=O)O)cc3cc(S(=O)(=O)O)cc(O)c23)c(C)cc1N=Nc1c(S(=O)(=O)O)cc2ccc(N=Nc3ccc(NCC(=O)O)cc3NCC(=O)O)cc2c1O [compound 0007]	3-4 rank	4 rank	4 rank	◯	◯	◯	◯
COc1cc(N=Nc2cc(S(=O)(=O)O)cc3cc(S(=O)(=O)O)cc(O)c23)c(C)cc1N=Nc1c(S(=O)(=O)O)cc2ccc(N=Nc3ccc(N)cc3O)cc2c1O [compound 0002]	4 rank	5 rank	4-5 rank	◯	◯	◯	Δ˜◯
O=S(=O)(O)c1cc(O)c2c(N=Nc3ccc(N=Nc4c(S(=O)(=O)O)cc5ccc(N=Nc6ccc(O)cc6O)cc5c4O)c4cc(S(=O)(=O)O)ccc34)cc(S(=O)(=O)O)cc2c1 [compound 0025]	3 rank	4 rank	4-5 rank	◯	◯	◯	x˜Δ
COc1cc(N=Nc2cc(S(=O)(=O)O)cc3cc(S(=O)(=O)O)cc(O)c23)c(NC(C)=O)cc1N=Nc1c(S(=O)(=O)O)cc2cc(S(=O)(=O)O)c(N=Nc3cc(S(=O)(=O)O)c(N)cc3N)cc2c1O [compound 0234]	5 rank	5 rank	5 rank	◯	◯	◯	Δ
COCCOc1cc(N=Nc2cc(S(=O)(=O)O)cc3cc(S(=O)(=O)O)cc(O)c23)c(NC(C)=O)cc1N=Nc1c(S(=O)(=O)O)cc2ccc(N=Nc3ccc(N)cc3N)cc2c1O [compound 0019]	5 rank	5 rank	5 rank	◯	◯	◯	Δ˜◯
Nc1cc2c(O)c(N=Nc3ccc(N=Nc4ccc(S(=O)(=O)[O-])cc4)c4ccc(S(=O)(=O)[O-])cc34)c(S(=O)(=O)[O-])cc2cc1S(=O)(=O)[O-].[Na+].[Na+].[Na+].[Na+] [compound 1, C.I. Food Black 2, reference compound]	3 rank	4-5 rank	4-5 rank	Δ	◯		
Nc1ccc2cc(S(=O)(=O)O)c(N=Nc3ccc(N=Nc4cc(C(=O)O)cc(C(=O)O)c4)c4ccccc34)c(O)c2c1 [compound 2, reference compound]	2 rank	4 rank	4 rank		◯	◯	◯
